{
  "source": "patent US20140024653A1",
  "about": "“COMPOSITIONS AND METHODS FOR TREATING CANCER USING PI3K INHIBITOR AND MEK INHIBITOR” (priority 2011, published 2014)",
  "key": {"[1]": {"test_system": "HCT116 tumor vascular permeability", "assay": "tumor vascular permeability, Evans Blue extravasation / Dextran-Fitc", "format": "in vivo, SCID mice", "conditions": "(1) 10 mg/kg oral daily day 11 to day 13", "procedure": "HCT116 tumor cells were implanted subcutaneously in the intra-scapular region in SCID mice. […] Each agent was given by oral route on a daily schedule. Tumor growth was monitored throughout the experiment by callipering the tumors. To quantify tumor vascular permeability, tumors were excised under ketamine/Xylazine (120/6 mg/kg ip) anesthesia at day 13, 4 hours post last treatment, 30 min after 0.5% Evans Blue iv injection, and 2 min post Dextran-Fitc 100 mg/kg iv injection. Tumors were then snap frozen, and 25 μm sections obtained for fluorescence quantification. Tumors sections were imaged with Icyte at 488 nm for vascular Dextran-Fitc determination and at 633 nm for Evans-Blue extravasation determination. Respective fluorescence were quantified as the sum of integral phantoms of fluorescence intensity and expressed as the mean ratio of Evans-Blue signal/Dextran-Fitc Signal."}, "[2]": {"conditions": "mice; cited from earlier work"}, "[3]": {"test_system": "90 non-kinase targets", "conditions": "tested at 10 μM; cited from earlier work"}, "[4]": {"test_system": "217 kinases", "conditions": "tested at 10 μM; cited from earlier work"}, "[5]": {"conditions": "mice and rats; cited from earlier work"}},
  "data": [
    {"compound": "O=C(NC[C@H](O)CO)c1ccncc1Nc1ccc(I)cc1F", "note": "[Compound (1), N—((S)-2,3-dihydroxypropyl)-3-(2-fluoro-4-iodo-phenylamino)isonicotinamide]", "values": [
      {"measurement": "decrease of the Evans-Blue/Dextran-Fitc ratio compared to control", "setting": "[1]", "value": "−9", "unit": "%"},
      {"measurement": "two-week maximum tolerated dose", "setting": "[2]", "value": 60, "unit": "mg/kg BID"},
      {"measurement": "activity against 90 non-kinase targets", "setting": "[3]", "value": "no activity"},
      {"measurement": "activity against 217 kinases", "setting": "[4]", "value": "no activity"},
      {"measurement": "clearance", "setting": "[5]", "value": "15 to 43.3", "unit": "mL/min/kg"},
      {"measurement": "half-life", "setting": "[5]", "value": "2.2 to 4.7", "unit": "h"},
      {"measurement": "oral bioavailability", "setting": "[5]", "value": "52-57%"}
    ]}
  ]
}
